# Test results from ChEMBL document CHEMBL1201862, “PubChem BioAssay data set” (2004).
# Activity calls are given as the source filed them.
# Key:
# [1] = cytotoxicity in HEK-293T cells, dose response, cytotoxicity control for BCR NF-kB inhibitor project, luminescence, B-cell screen hits (AID 489021); type: functional, cell-based;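 note: HEK-293T cells carrying an NF-kB luciferase reporter; cells exposed to compound for about 14 hours before viability readout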
# [2] = target: T1, Carboxy-terminal domain RNA polymerase II polypeptide A small phosphatase 1 (Homo sapiens, UniProt Q9GZU7); test: inhibitors of CTDSP1, concentration-response testing, biochemical assay, absorbance-based, actives from ultra-high-throughput screening (AID 540297); type: functional
# T1 sequence (Q9GZU7 whole entry): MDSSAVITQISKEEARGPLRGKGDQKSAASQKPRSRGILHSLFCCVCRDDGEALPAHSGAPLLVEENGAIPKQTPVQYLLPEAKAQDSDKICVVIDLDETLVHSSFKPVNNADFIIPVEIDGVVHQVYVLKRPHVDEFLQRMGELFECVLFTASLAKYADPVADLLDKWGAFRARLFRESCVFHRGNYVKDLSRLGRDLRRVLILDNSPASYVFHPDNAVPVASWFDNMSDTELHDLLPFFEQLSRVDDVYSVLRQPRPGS
# [3] = inhibitors of intracellular T. cruzi replication, confirmation, NIH3T3 host cells, beta-gal luminescence (AID 2044); type: functional, cell-based;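 note: intracellular parasites grown in NIH/3T3 mouse fibroblasts as host cells; luminescent beta-galactosidase reporter signal from transgenic T. cruzi replicating inside host cells; inhibitors lower the luminescence signal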
# [4] = cytotoxicity toward NIH3T3 fibroblasts, dose response, counter-screen, cell-based, ATP luminescence, mouse fibroblasts (AID 2010); type: functional;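 note: cells exposed to compound for about 90 hours before reading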
# [5] = target: T2, Galanin receptor type 3 (Homo sapiens, UniProt O60755); test: Fluorescence-based cell-based primary high throughput dose response assay to identify antagonists of the Galanin Receptor 3 (GalR3).; type: functional
# T2 sequence (O60755 whole entry): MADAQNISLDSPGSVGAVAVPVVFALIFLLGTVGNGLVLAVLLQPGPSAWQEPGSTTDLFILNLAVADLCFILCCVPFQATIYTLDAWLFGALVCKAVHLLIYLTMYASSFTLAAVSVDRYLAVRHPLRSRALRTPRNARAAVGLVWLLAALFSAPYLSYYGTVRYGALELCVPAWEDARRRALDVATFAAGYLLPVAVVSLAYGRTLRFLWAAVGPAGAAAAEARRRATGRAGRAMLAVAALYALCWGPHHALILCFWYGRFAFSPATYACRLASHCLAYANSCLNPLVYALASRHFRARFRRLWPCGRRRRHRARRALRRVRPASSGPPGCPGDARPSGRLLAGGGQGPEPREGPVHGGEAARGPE
# [6] = cells; type: functional, cell-based; conditions: HEK-CNG
# [7] = Luminescence Cell-Based Dose Confirmation HTS to Identify Activators of 5'UTR Stem-Loop Driven Alpha-Synuclein mRNA Translation in H4 Neuroglioblastoma Cells. [Related pubchem assays: 1829 (Project Summary), 1814 (Primary HTS)]; type: functional
# [8] = Luminescence Cell-Based Dose Response HTS to Identify Activators of Luciferase Translation or Activity in H4 […] Cells. [Related pubchem assays: 1829 (Project Summary), 1814 (Primary HTS)]; type: functional
# [9] = system: H4; test: Luminescence Cell-Based Dose Response HTS to Identify Activators of 5'UTR Stem-Loop Driven Prion Protein mRNA Translation in H4 Neuroglioblastoma Cells. [Related pubchem assays: 1829 (Project Summary), 1814 (Primary HTS)]; type: functional; conditions: Homo sapiens
# [10] = microbe, parasite or virus in culture; type: functional; conditions: Mycobacterium tuberculosis
# [11] = system: Vero; test: cells; type: functional, cell-based; conditions: Chlorocebus sabaeus
# [12] = system: Vero; test: cells; type: functional; conditions: Chlorocebus sabaeus
# [13] = target: T3, Corticotropin-releasing factor receptor 2/Corticotropin-releasing factor-binding protein (Homo sapiens, UniProt P24387+Q13324); test: activators of CRF receptor 2 with binding protein – uHTS hits, confirmation (AID 602473); type: functional; conditions: read-out: EC50_Mean
# T3 sequence (Q13324 whole entry): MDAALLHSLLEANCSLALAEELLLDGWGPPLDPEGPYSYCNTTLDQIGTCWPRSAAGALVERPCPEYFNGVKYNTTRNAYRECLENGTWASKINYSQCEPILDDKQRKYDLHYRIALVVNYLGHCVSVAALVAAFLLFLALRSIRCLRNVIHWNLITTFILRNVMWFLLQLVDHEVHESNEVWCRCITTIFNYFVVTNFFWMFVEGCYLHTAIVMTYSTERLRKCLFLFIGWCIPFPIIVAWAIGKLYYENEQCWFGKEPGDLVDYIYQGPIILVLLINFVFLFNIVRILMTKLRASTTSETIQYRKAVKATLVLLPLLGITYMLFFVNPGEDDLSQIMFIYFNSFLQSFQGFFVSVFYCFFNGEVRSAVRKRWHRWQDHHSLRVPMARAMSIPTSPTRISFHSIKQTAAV
# T3 sequence (P24387 whole entry): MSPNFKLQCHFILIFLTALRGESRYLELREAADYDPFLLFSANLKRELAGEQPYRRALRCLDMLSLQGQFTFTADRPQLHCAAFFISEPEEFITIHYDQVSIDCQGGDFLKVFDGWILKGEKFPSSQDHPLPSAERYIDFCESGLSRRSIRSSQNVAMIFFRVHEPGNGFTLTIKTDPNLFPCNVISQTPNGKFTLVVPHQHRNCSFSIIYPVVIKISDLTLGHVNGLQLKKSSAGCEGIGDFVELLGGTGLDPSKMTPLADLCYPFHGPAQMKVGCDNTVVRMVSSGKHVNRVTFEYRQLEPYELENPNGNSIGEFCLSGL
# [14] = target: T4, Cytochrome P450 1A2 (Homo sapiens, UniProt P05177);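 note: PubChem cytochrome P450 panel assay, CYP1A2 panel member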
# T4 sequence (P05177 whole entry): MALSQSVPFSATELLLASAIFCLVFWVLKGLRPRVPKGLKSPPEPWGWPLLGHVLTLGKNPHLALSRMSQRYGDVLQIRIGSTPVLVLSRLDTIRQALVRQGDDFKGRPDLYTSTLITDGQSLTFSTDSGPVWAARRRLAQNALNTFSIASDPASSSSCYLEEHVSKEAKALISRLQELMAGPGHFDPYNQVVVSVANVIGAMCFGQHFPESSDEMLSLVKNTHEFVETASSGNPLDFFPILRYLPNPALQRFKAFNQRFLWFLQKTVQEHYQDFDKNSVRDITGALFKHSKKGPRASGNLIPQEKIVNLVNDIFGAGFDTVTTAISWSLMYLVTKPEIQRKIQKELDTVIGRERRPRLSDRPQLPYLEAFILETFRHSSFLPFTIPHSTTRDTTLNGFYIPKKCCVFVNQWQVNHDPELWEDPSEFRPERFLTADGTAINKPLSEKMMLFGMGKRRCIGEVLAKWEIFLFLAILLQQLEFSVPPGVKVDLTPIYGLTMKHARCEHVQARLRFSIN
# [15] = inhibitors of firefly luciferase expression or activity, dose response, H4 neuroglioma cells, luminescence (AID 1990); type: functional, cell-based
# [16] = Luminescence Cell-Based Dose Response HTS to Identify Inhibitors of 5'UTR Stem-Loop Driven Prion Protein mRNA Translation in H4 Neuroglioblastoma Cells. [Related pubchem assays: 1827 (Project Summary), 1813 (Primary HTS)]; type: functional
# [17] = target: T5, Aspartyl aminopeptidase (Plasmodium falciparum 3D7, UniProt Q8I2J3)
# T5 sequence (Q8I2J3 whole entry): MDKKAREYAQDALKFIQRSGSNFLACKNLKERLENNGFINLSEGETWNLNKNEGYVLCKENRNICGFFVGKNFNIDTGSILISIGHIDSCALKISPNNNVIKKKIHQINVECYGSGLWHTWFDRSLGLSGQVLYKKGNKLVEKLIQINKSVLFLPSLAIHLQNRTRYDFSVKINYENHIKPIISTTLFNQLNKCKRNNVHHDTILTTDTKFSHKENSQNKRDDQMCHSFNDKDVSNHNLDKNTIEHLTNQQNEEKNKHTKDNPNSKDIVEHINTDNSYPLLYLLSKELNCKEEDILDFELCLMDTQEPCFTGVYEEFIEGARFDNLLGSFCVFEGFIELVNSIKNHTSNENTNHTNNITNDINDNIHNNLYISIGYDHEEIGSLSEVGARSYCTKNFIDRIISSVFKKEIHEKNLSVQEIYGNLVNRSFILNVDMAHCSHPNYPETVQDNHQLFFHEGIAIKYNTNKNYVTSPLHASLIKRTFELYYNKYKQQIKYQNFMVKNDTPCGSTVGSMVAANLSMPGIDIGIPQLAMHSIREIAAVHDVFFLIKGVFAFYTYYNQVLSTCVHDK
# [18] = target: Procathepsin L (Homo sapiens, UniProt P07711)
# Sequence of Procathepsin L (P07711 whole entry): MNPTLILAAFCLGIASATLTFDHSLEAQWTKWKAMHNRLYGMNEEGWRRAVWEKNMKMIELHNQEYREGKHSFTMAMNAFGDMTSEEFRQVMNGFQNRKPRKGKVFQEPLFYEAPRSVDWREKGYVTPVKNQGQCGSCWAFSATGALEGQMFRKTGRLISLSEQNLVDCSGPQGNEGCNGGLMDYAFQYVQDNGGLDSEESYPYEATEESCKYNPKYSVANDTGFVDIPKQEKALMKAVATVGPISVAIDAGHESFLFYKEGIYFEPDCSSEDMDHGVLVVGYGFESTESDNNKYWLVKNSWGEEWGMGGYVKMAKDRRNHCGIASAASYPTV
# [19] = target: Cytochrome P450 2C19 (Homo sapiens, UniProt P33261); test: Cytochrome panel assay with activity outcomes. Panel member name: p450-cyp2c19 Compounds with AC50 equal or less than 10 uM are considered active; type: functional; conditions: read-out: AC50
# Sequence of Cytochrome P450 2C19 (P33261 whole entry): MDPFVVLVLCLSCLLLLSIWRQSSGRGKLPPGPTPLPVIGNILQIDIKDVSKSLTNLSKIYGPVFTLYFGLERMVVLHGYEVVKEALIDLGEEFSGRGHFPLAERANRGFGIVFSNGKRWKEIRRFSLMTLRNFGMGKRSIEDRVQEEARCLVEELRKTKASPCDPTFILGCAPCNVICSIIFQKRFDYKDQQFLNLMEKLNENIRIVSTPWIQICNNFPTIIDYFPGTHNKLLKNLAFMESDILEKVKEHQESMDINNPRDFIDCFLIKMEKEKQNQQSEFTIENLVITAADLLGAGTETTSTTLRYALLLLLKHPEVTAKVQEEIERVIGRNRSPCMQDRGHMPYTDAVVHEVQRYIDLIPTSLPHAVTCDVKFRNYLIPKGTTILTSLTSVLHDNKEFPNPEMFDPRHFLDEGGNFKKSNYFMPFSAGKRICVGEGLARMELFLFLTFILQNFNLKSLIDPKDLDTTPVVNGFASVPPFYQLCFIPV
# [20] = target: Cytochrome P450 3A4 (Homo sapiens, UniProt P08684);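 note: CYP3A4 tested as one member of a cytochrome P450 panel screen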
# Sequence of Cytochrome P450 3A4 (P08684 whole entry, the tested form may be a part): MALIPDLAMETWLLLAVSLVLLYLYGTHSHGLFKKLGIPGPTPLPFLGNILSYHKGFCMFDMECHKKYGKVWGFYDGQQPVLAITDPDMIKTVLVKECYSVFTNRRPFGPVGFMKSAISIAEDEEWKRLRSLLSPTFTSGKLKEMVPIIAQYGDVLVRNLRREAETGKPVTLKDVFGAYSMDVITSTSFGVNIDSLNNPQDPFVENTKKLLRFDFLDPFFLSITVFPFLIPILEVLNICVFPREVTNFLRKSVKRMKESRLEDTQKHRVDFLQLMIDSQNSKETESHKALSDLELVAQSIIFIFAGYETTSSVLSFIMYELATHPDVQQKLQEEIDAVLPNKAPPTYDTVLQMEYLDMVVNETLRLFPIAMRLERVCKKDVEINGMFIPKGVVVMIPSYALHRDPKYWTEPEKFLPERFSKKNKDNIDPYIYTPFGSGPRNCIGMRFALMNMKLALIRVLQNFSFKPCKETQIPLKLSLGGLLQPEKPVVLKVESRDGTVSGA
# [21] = target: T6, RNA-binding protein pos-1 (Caenorhabditis elegans, UniProt G5EF15); test: inhibitors of POS-1/mex-3 RNA binding, dose response, biochemical, fluorescence polarization (AID 1964);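 note: purified POS-1 fused to maltose binding protein made in E. coli; potency of compounds blocking POS-1 binding to fluorescent RNA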
# T6 sequence (G5EF15 whole entry): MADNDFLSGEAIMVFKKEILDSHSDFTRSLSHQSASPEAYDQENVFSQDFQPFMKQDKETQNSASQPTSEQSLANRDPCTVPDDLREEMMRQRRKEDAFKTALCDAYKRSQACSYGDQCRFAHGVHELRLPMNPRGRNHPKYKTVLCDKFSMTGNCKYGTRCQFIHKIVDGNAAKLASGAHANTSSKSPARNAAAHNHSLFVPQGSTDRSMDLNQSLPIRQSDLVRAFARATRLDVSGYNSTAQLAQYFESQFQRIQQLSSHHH
# [22] = system: BJ; test: cytotoxicity toward BJ-TERT fibroblasts, dose response, cell-based, RAS-independent, luminescence (AID 1933); type: functional; conditions: Homo sapiens
# [23] = target: T7, Zinc finger protein mex-5 (Caenorhabditis elegans, UniProt Q9XUB2); test: MEX-5/TCR-2 RNA interaction inhibitors, dose response, biochemical, C. elegans, fluorescence polarization (AID 1960)
# T7 sequence (Q9XUB2 whole entry): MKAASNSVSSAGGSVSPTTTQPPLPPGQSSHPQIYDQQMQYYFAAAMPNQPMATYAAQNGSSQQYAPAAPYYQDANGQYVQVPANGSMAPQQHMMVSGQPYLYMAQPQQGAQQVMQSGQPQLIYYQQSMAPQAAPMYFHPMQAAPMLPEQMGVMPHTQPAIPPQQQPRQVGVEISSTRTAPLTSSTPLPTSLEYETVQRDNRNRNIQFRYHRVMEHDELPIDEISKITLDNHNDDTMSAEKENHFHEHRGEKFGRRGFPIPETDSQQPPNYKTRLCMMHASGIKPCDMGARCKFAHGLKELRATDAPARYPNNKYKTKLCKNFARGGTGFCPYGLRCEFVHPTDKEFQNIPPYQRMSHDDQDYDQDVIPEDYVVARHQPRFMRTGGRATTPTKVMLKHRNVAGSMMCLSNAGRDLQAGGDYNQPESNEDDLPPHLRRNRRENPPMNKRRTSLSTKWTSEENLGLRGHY
# [24] = system: BJ; test: cells; type: functional, cell-based; conditions: Homo sapiens
# [25] = system: BJ; test: cytotoxicity toward BJ-TERT-LT-ST fibroblasts, dose response, cell-based, RAS-independent, luminescence (AID 1935); type: functional; conditions: Homo sapiens;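 note: BJ fibroblasts immortalized with TERT plus LT and ST oncogenes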
# [26] = cytotoxicity toward DRD oncogenic fibroblasts, dose response, cell-based, non-viral oncogenic, luminescence (AID 1934); type: functional; conditions: Homo sapiens
# [27] = system: BJ; test: cytotoxicity toward Ras-transformed BJeLR fibroblasts, dose response, cell-based, alamar blue fluorescence, cherrypicked samples (AID 2631); type: functional; conditions: Homo sapiens;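 note: confirmatory dose-response assay in RAS-dependent BJ fibroblasts engineered with TERT, LT and ST, with cytotoxicity read by fluorescence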
# [28] = target: Prothrombin (Homo sapiens, UniProt P00734); test: Thrombin 1536 HTS Dose Response Confirmation. [Related pubchem assays: 1046 (Thrombin 1536 HTS; hits were confirmed in this assay)]; type: functional
# [29] = inhibitors of SNCA 5'UTR-driven reporter translation, confirmation, H4 neuroglioma cells, luminescence (AID 1988); type: functional, cell-based
structure (smiles),measurement,setting,value
COc1ccc(/C=C2\SC(=S)N(CCC(=O)Nc3ccc(C(=O)O)cc3)C2=O)cc1,IC50,[1],> 80 µM (inactive)
same,IC50,[2],2.63 µM (active)
CC1(C)CC2CC(C)(CN2S(=O)(=O)c2ccc(C(=O)Nc3ccc(S(=O)(=O)N4CCOCC4)cc3)cc2)C1 (centres undefined),EC50,[3],1.83 µM (active)
same,EC50,[4],> 60 µM (not active)
same,IC50,[1],> 80 µM (inactive)
same,IC50,[5],0.96 µM (active)
same,EC50,[6],> 29.9 µM (inactive)
CC(C)C1N=C(c2ccc3c(c2)OCO3)CC(c2ccccc2O)N1 (centres undefined),EC50,[7],16.6 µM (active)
same,EC50,[8],15.4 µM (active)
same,EC50,[9],4.62 µM (active)
same,CC50,[10],13.8 µM (active)
same,IC50,[11],> 25 µM (active)
same,CC50,[12],14.7 µM (active)
c1nnc(NCNc2nncs2)s1,IC50,[11],> 25 µM (active)
same,CC50,[12],> 25 µM (active)
same,EC50,[13],> 53 µM (inactive)
same,AC50,[14],2 µM (inconclusive)
Cc1nc2cc(-c3ccc(Cl)cc3)nn2c(C)c1CCC(=O)NC(C)c1ccc2c(c1)OCCO2 (centres undefined),EC50,[15],< 0.1 µM (active)
same,EC50,[16],11.6 µM (active)
same,IC50,[1],> 80 µM (inactive)
Cc1ccc(N2C(=O)/C(=C/Nn3cnnc3)c3ccccc3C2=O)cc1,IC50,[17],1.67 µM (active)
same,IC50,[18],> 59.6 µM (not active)
same,AC50,[19],10 µM (inconclusive)
same,AC50,[20],15.8 µM (inconclusive)
CCc1ccc(/C=C2/SC(=S)N(CCC(=O)Nc3cccnc3)C2=O)cc1,EC50,[21],141 µM (active)
same,EC50,[22],2.88 µM (inconclusive)
same,EC50,[23],> 300 µM (inconclusive)
same,EC50,[24],> 150 µM (inconclusive)
same,EC50,[25],> 75 µM (inconclusive)
same,EC50,[26],12.8 µM (active)
same,IC50,[1],> 80 µM (inactive)
same,EC50,[27],> 66.7 µM (inactive)
Cc1ccc(-c2nn3c(C)nnc3c3ccccc23)cc1S(=O)(=O)N1CCN(CCO)CC1,IC50,[1],> 80 µM (inactive)
Cc1ccc2nc(NC(=O)CSCC(=O)OCC(=O)c3ccc(Br)cc3)sc2c1,IC50,[28],0.0393 µM (active)
same,IC50,[1],> 80 µM (inactive)
Cc1ccc(CSc2nnc(SCC(=O)N/N=C/C=C/c3ccccc3[N+](=O)[O-])s2)cc1,EC50,[15],9.7 µM (active)
same,EC50,[16],12.9 µM (active)
same,EC50,[29],12.1 µM (active)
same,IC50,[1],> 80 µM (inactive)
